# Results published in the supplement of paper PMC11208160.
# Assay: recombinant UMI read abundance after kanamycin selection (control-corrected) (log10(CPM+1)); higher = more efficient recombination; extreme values may be limits of the assay; sequences stand for … in AGTGCAGAGAAAATCGGCCAGTTTTCTCTGCCTGCAGTCCGCATGCCGTGGGACCCCTTGGGTTCTAACCTGTTGCCTAGATTTATGCAGCGGACTGCCTTTCTCCCAAAGTGATAAACCGG…AGGTTGGTTTCACT; site = the 11-nt donor
# In short: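 After plating on IPTG (0.07 mM) plus kanamycin, or unselected, in two replicates, recombinant UMIs were PCR-amplified across the donor–target junction and sequenced. The cells were Escherichia coli co-electroporated with a UMI-tagged donor and donor-binding-loop pair library and a target plasmid with a fixed target and T7-inducible IS621 bridge recombinase. Values are log10(CPM+1), with CPM averaged over replicates and scaled by control-derived factors.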
row,Sequence,recombinant UMI read abundance (log10)
1,ATTAGAACATGGACCGGTTTTCCCGGTAATCCGTATTTGAG (site ACTAGAACTCT),0.665
2,ATTAGAACATGGACCGGTTTTCCCGGTAATCCGTATTTGAG (site AGTAGAACTCT),0.286
3,ATTAGAACATGGACCGGTTTTCCCGGTAATCCGTATTTGAG (site ATTAGAACTCT),1.22
4,ATTAGGCCATGGACCGGTTTTCCCGGTAATCCGTATTTGAC (site ATAAGGCCTGT),0
5,ATTAGGCCATGGACCGGTTTTCCCGGTAATCCGTATTTGAC (site ATCAGGCCTGT),0.0148
6,ATTAGGCCATGGACCGGTTTTCCCGGTAATCCGTATTTGAC (site ATGAGGCCTGT),0
7,ATTAGGCCATGGACCGGTTTTCCCGGTAATCCGTATTTGAC (site ATTAGGCCTGT),0
8,ATTATCCCATGGACCGGTTTTCCCGGTAATCCGTATTTGCC (site ATTATCCCTGG),0.749
9,ATTCACGCATGGACCGGTTTTCCCGGTAATCCGTATTTGCA (site ATTCACGCTTG),2.42
10,ATTCAGCCATGGACCGGTTTTCCCGGTAATCCGTATTTGTT (site ATTCAGCCTAA),0.0136
11,ATTCATACATGGACCGGTTTTCCCGGTAATCCGTATTTGGC (site ATTCATACTGC),1.81
12,ATTCCATCATGGACCGGTTTTCCCGGTAATCCGTATTTGAC (site ATTCCATCTGT),0.764
13,ATTCCGACATGGACCGGTTTTCCCGGTAATCCGTATTTGTG (site ATTCCGACTCA),0.00802
14,ATTCGAGCATGGACCGGTTTTCCCGGTAATCCGTATTTGAA (site ATTCGAGCTTT),1.31
15,ATTGAAACATGGACCGGTTTTCCCGGTAATCCGTATTTGGT (site ATTGAAACTAC),1.66
16,ATTGAAACATGGACCGGTTTTCCCGGTAATCCGTATTTGGT (site ATTGACACTAC),0.0867
17,ATTGAAACATGGACCGGTTTTCCCGGTAATCCGTATTTGGT (site ATTGAGACTAC),0.484
18,ATTGAAACATGGACCGGTTTTCCCGGTAATCCGTATTTGGT (site ATTGATACTAC),0.0144
19,ATTGACCCATGGACCGGTTTTCCCGGTAATCCGTATTTGGA (site ATTGACCCTTC),0.0199
20,ATTGAGACATGGACCGGTTTTCCCGGTAATCCGTATTTGGA (site ATTGAGACTAC),0.0442
21,ATTGAGACATGGACCGGTTTTCCCGGTAATCCGTATTTGGA (site ATTGAGACTCC),0.663
22,ATTGAGACATGGACCGGTTTTCCCGGTAATCCGTATTTGGA (site ATTGAGACTGC),0.645
23,ATTGAGACATGGACCGGTTTTCCCGGTAATCCGTATTTGGA (site ATTGAGACTTC),1
24,ATTGAGACATGGACCGGTTTTCCCGGTAATCCGTATTTGGT (site AATGAGACTAC),0.233
25,ATTGAGACATGGACCGGTTTTCCCGGTAATCCGTATTTGGT (site ACTGAGACTAC),0.972
26,ATTGAGACATGGACCGGTTTTCCCGGTAATCCGTATTTGGT (site AGTGAGACTAC),0.609
27,ATTGAGACATGGACCGGTTTTCCCGGTAATCCGTATTTGGT (site ATAGAGACTAC),1.78
28,ATTGAGACATGGACCGGTTTTCCCGGTAATCCGTATTTGGT (site ATCGAGACTAC),0.854
29,ATTGAGACATGGACCGGTTTTCCCGGTAATCCGTATTTGGT (site ATGGAGACTAC),0.639
